Calls of active or inactive are those of the source. No cut-off for these calls is given here.
Tests used:
[1] = target: T1, Lysine-specific histone demethylase 1A (Homo sapiens, UniProt O60341)
Description: Inhibition of LSD1 (unknown origin) using H3K4me2 peptide as substrate preincubated for 15 mins followed by substrate addition and measured after 30 mins by fluorescence based analysis

[2] = target: Histone deacetylase 1 (Homo sapiens) (UniProt Q13547); assay: Inhibition of HDAC1 in human NCI-H526 cells assessed as increase in H3K4 methylation at 16 uM measured after 24 to 72 hrs by Western blot analysis; format: cell-based; settings: time 24-72 hrs
in vitro [3] = settings: human, HMEC cells versus NCI-H526 cells
Description: Selectivity index, ratio of IC50 for cytotoxicity against HMEC cells to GI50 for antiproliferative activity against human NCI-H526 cells

MDA-MB-231 [4] = assay: cells; format: functional; settings: Homo sapiens, MDA-MB-231, 72 h; time 3 day
Description: Antiproliferative activity against human MDA-MB-231 cells assessed as inhibition of cell growth incubated for 3 days by alamar blue assay

MDA-MB-231 [5] = assay: Additive antiproliferative activity against human MDA-MB-231 cells assessed as inhibition of cell growth incubated for 3 days in presence of 4-(Chloromethyl)phenyl acetate by alamar blue assay; format: functional, cell-based; settings: time 3.0 day
MDA-MB-231 [6] = assay: Synergistic antiproliferative activity against human MDA-MB-231 cells assessed as inhibition of cell growth incubated for 3 days in presence of LSD1 inhibitor, NCD38 by alamar blue assay; format: functional, cell-based; settings: time 3.0 day
NCI-H526 = assay: cells; format: functional; settings: Homo sapiens, NCI-H526, 72 h; time 3 day
Description: Antiproliferative activity against human NCI-H526 cells assessed as inhibition of cell growth incubated for 3 days by alamar blue assay

MDA-MB-231 [7] = assay: Synergistic antiproliferative activity against human MDA-MB-231 cells assessed as inhibition of cell growth incubated for 3 days in presence of vorinostat by alamar blue assay; format: functional, cell-based; settings: time 3.0 day
[8] = target: Histone deacetylase 1 (Homo sapiens) (UniProt Q13547); assay: Potency index, ratio of vorinostat IC50 to test compound IC50 for inhibition of HDAC1 human NCI-H526 cells measured after 24 to 72 hrs by Western blot analysis; format: cell-based; settings: time 24-72 hrs
[9] = target: Histone deacetylase 1 (Homo sapiens) (UniProt Q13547); assay: Inhibition of HDAC1 in human NCI-H526 cells assessed as increase in H3K9 acetylation at 16 uM measured after 24 to 72 hrs by Western blot analysis; format: cell-based; settings: time 24-72 hrs
in vitro [10] = settings: human, HMEC cells
Description: Cytotoxicity against HMEC cells assessed as inhibition of cell growth incubated for 3 days by alamar blue assay

in vitro [11] = settings: human, HMEC cells versus MDA-MB-231 cells
Description: Selectivity index, ratio of IC50 for cytotoxicity against HMEC cells to GI50 for antiproliferative activity against human MDA-MB-231 cells

[12] = Stability of compound in buffer at pH 7.4; format: physicochemical
[13] = target: T1, Lysine-specific histone demethylase 1A; assay: Prodrug conversion assessed as LSD1 (unknown origin)-mediated vorinostat release incubated for 24 hrs by HPLC analysis; format: ADME
[14] = target: T1, Lysine-specific histone demethylase 1A; assay: Potency index, ratio of phenylcyclopropylamine IC50 to test compound IC50 for inhibition of LSD1 (unknown origin) using H3K4me2 peptide as substrate preincubated for 15 mins followed by substrate addition and measured after 30 mins by fluorescence based analysis; settings: time 45.0 min
[15] = Stability of compound in HEPES buffer at pH 7.4 at 100 uM incubated for 24 hrs by HPLC analysis; format: physicochemical; settings: pH 7.4, 24 h

Chain of Histone deacetylase 1 (Homo sapiens) (Q13547 whole entry): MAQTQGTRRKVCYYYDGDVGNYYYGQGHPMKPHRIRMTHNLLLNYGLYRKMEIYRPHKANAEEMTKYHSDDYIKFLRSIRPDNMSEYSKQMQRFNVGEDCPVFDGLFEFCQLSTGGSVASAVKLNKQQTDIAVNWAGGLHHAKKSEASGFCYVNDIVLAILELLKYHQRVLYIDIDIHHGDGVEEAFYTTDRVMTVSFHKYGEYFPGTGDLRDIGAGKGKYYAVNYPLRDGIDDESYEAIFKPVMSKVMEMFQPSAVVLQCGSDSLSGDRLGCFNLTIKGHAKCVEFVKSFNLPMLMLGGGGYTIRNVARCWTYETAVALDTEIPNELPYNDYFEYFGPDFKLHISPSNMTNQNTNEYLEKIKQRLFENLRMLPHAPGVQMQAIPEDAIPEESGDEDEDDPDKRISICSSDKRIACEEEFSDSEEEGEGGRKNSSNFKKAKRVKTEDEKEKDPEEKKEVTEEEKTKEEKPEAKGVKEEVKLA

For CNC(=O)c1cccc(-c2ccc([C@H]3C[C@@H]3N(C)CCN(C)C(=O)Oc3ccc(CONC(=O)CCCCCCC(=O)Nc4ccccc4)cc3)cc2)c1, which IC50 [1] is on record?
The IC50 was 457 nM.

Which inhibition [2] does the source give for CNC(=O)c1cccc(-c2ccc(C3CC3N(C)CCN(C)C(=O)Oc3ccc(CONC(=O)CCCCCCC(=O)Nc4ccccc4)cc3)cc2)c1 (racemic) here?
The inhibition was “Active”.

And the selectivity ratio (in vitro [3])?
The selectivity ratio was over 100.

And the GI50 (MDA-MB-231 [4])?
Its GI50 is 4.49 µM.

And the Activity (MDA-MB-231 [5])?
The Activity was “Active”.

What about the Activity (MDA-MB-231 [6]) of the same compound?
The Activity was “Active”.

What about the IC50 [1] of the same compound?
The IC50 was 126 nM.

What about the GI50 (NCI-H526) of the same compound?
The GI50 was 1000 nM.

What about the Activity (MDA-MB-231 [7]) of the same compound?
Its Activity is “Active”.

What about the Ratio IC50 [8] of the same compound?
The Ratio IC50 was 40.

What about the inhibition [9] of the same compound?
The inhibition was “Active”.

What about the IC50 at 3 days (in vitro [10]) of the same compound?
Its IC50 at 3 days is over 100 µM.

What about the selectivity ratio (in vitro [11]) of the same compound?
The selectivity ratio was over 22.3.

Which GI50 (MDA-MB-231 [4]) does the source give for CN(CCN(C)C1CC1c1ccccc1)C(=O)Oc1ccc(CONC(=O)CCCCCCC(=O)Nc2ccccc2)cc1 (centres undefined) here?
Its GI50 is 34.3 µM.

What about the Stability [12] of the same compound?
Its Stability is “Stable”.

And the IC50 [1]?
The IC50 was 1290 nM.

And the Drug metabolism [13]?
Its Drug metabolism is “Metabolite_Detected”.

What about the IC50 at 3 days (in vitro [10]) of the same compound?
The IC50 at 3 days was over 100 µM.

What about the Ratio IC50 [14] of the same compound?
Its Ratio IC50 is 19.

What about the selectivity ratio (in vitro [11]) of the same compound?
The selectivity ratio was over 2.92.

For CC(=O)Oc1ccc(CCl)cc1, which GI50 (MDA-MB-231 [4]) is on record?
The GI50 was 2.05 µM.

What about the GI50 (NCI-H526) of the same compound?
Its GI50 is 2020 nM.

Which Stability [15] does the source give for CN(CCN(C)C1CC1c1ccccc1)C(=O)ONC(=O)CCCCCCC(=O)Nc1ccccc1 (centres undefined) here?
Its Stability is “Unstable”.

Which IC50 [1] does the source give for CNC(=O)c1cccc(-c2ccc([C@@H]3C[C@H]3N(C)CCN(C)C(=O)Oc3ccc(CONC(=O)CCCCCCC(=O)Nc4ccccc4)cc3)cc2)c1 here?
The IC50 was 444 nM.

— ChEMBL document CHEMBL5126645, “Cancer-Cell-Selective Targeting by Arylcyclopropylamine-Vorinostat Conjugates” (ACS Med Chem Lett, 2022)
